The nature of data set [1]: Pharmacokinetic Test in Rats (Inhalation Administration). The following applies: rat, in vivo, inhaled or intranasal, male SD rats, single dose 0.03 mg/kg; for Cmax / AUC(0-t): lung tissue; for AUC(0-t): read-out: Lung AUC0-t; for Kp: read-out: Lung AUC0-t/plasma AUC0-t. The procedure: 4: Pharmacokinetic Test in Rats (Inhalation Administration)
The samples were analyzed quantitatively by LC-MS/MS.

The conditions of data set [2]: 12-week, PATENT-1, riociguat group, cited from earlier work.

Turning to `CC(C)(Cc1csc([C@]2(C)C(=O)Nc3nc(-c4nc(CCC(F)(F)C(F)(F)F)n5ncccc45)nc(N)c32)n1)C(=O)O` [Compound 3-1], in data set [1], the Cmax came out at 2980 ng/mL, the AUC(0-t) stood at 3630 ng·h/mL and the Kp worked out at 65.
`CC(C)(Cc1csc(C2(C)C(=O)Nc3nc(-n4nc(Cc5cccc(F)c5F)c5ncc(F)cc54)nc(N)c32)n1)C(=O)O` (single isomer, unassigned) [Compound 36-1]: in data set [1], the peak level (Cmax) was 4070 ng/mL, the AUC(0-t) came out at 10100 ng·h/mL and the Kp stood at 49.1.
Take `CC(C)(Cc1csc([C@]2(C)C(=O)Nc3nc(-c4nn(CCC(F)(F)C(F)(F)F)c5ncccc45)nc(N)c32)n1)C(=O)O` [Control compound 1, reference compound]: in data set [1], the Cmax is 273 ng/mL and the AUC(0-t) amounted to 220 ng·h/mL.
For the compound `CC(C)(Cc1csc([C@]2(C)C(=O)Nc3nc(-n4c(=O)n(Cc5ccccc5F)c5cc(F)ccc54)nc(N)c32)n1)C(=O)O` [Compound 38-1], in data set [1], the Cmax turned out to be 1740 ng/mL and the Kp came to 83.6.
With `CC(C)(Cc1csc([C@]2(C)C(=O)Nc3nc(-n4nc(CCC(F)(F)C(F)(F)F)c5cc(F)ccc54)nc(N)c32)n1)C(=O)O` [Compound 17-1], in data set [1], the peak level (Cmax) was 1750 ng/mL, the AUC(0-t) was 2020 ng·h/mL and the Kp is 48.4.
For `CC(C)(Cc1csc(C2(C)C(=O)Nc3nc(-n4nc(Cc5ccccc5F)c5ncc(F)cc54)nc(N)c32)n1)C(=O)O` (single isomer, unassigned) [Compound 35-1], in data set [1], the Cmax came to 2540 ng/mL and the AUC(0-t) amounted to 5430 ng·h/mL.
For the compound `CC(C)(Cc1csc(C2(C)C(=O)Nc3nc(-n4nc(CCC(F)(F)C(F)(F)F)c5ncc(F)cc54)nc(N)c32)n1)C(=O)O` (single isomer, unassigned) [Compound 37-1], in data set [1], the highest level (Cmax) was 1730 ng/mL and the AUC(0-t) is 3280 ng·h/mL.
Turning to `CC(C)(Cc1csc([C@]2(C)C(=O)Nc3nc(-c4nc(Cc5ccccc5F)n5ncccc45)nc(N)c32)n1)C(=O)O` [Compound 19-1], in data set [1], the Cmax amounted to 2840 ng/mL, the AUC(0-t) is 12200 ng·h/mL and the Kp was 245.
Take `CC(C)(Cc1csc([C@]2(C)C(=O)Nc3nc(-n4c(=O)n(CCC(F)(F)C(F)(F)F)c5cc(F)ccc54)nc(N)c32)n1)C(=O)O` [Compound 31-1]: in data set [1], the Cmax amounted to 1180 ng/mL, the AUC(0-t) was 608 ng·h/mL and the Kp was 97.9.
In the case of `CC(C)(Cc1csc([C@]2(C)C(=O)Nc3nc(-n4nc(CCC(F)(F)C(F)(F)F)c5cc(Cl)ccc54)nc(N)c32)n1)C(=O)O` (single isomer, unassigned) [Compound 4-1], in data set [1], the Cmax was found to be 2350 ng/mL, the AUC(0-t) came to 2460 ng·h/mL and the Kp was 77.1.
On to `COC(=O)N(C)c1c(N)nc(-c2nn(Cc3ccccc3F)c3ncccc23)nc1N` [riociguat, Riociguat], for which, in data set [2] (placebo 2%), the anemia is 7% and the gastroesophageal reflux disease was 5%. In data set [2] (placebo 8%), the diarrhea is reported as 12%.
For `CC(C)(Cc1cccc([C@@]2(C)C(=O)Nc3nc(-c4nn(CCC(F)(F)C(F)(F)F)c5cc(Cl)cnc45)nc(N)c32)c1)C(=O)O` [Compound 6-1], in data set [1], the Cmax amounted to 2820 ng/mL, the AUC(0-t) is 5170 ng·h/mL and the Kp was determined as 659.
Turning to `CC(C)(Cc1csc([C@]2(C)C(=O)Nc3nc(-c4nc(CCC(F)(F)C(F)(F)F)n5cc(F)ccc45)nc(N)c32)n1)C(=O)O` [Compound 45-1], in data set [1], the Cmax was 2850 ng/mL, the AUC(0-t) came to 4500 ng·h/mL and the Kp stood at 43.4.

The values are drawn from patent publication US20260365673A1, “PYRROLO[2,3-D]PYRIMIDIN-4-AMINE DERIVATIVE AND USE THEREOF IN MEDICINE” (HAISCO PHARMACEUTICAL GROUP CO., LTD., priority 2023, published 2026).
